Assay results as given in PubChem BioAssay AID282 (DTP/NCI, 2004).
“And” between values parts separate entries of the source, which are not always exact repeats. Identical values can stand only once. Inconclusive results and toxic doses are left out.

Test system: BDF1 mice, L1210 terephthalanilide-resistant leukemia ip, survival T/C
Test: NCI In Vivo Anticancer Drug Screen. Data for tumor model L1210 Leukemia resistant to A Terephthalanilide; NSC 38280 (intraperitoneal) in B6D2F1 (BDF1) mice
Details: endpoint: mean survival time, higher = longer survival
Procedure: The antitumor activity of compounds was measured in mice bearing transplantable tumors. Survival or tumor size were measured and the results are expressed as the measurement made in the treated group (T) divided by the measurement made in the vehicle treated control group (C). The tumor model used in this assay is L1210 Leukemia resistant to A Terephthalanilide; NSC 38280 (intraperitoneal) in B6D2F1 (BDF1) mice

[1] = dose: 5.0 mg/kg/injection, schedule: Q01DX Z (ip), vehicle: saline
[2] = dose: 10.0 mg/kg/injection, schedule: Q01DX Z (ip), vehicle: saline
[3] = dose: 20.0 mg/kg/injection, schedule: Q01DX Z (ip), vehicle: saline
[4] = dose: 250.0 mg/kg/injection, schedule: Q01DX Z (ip), vehicle: saline
[5] = dose: 500.0 mg/kg/injection, schedule: Q01DX Z (ip), vehicle: saline
[6] = dose: 6.0 mg/kg/injection, schedule: Q01DX010 (ip), vehicle: saline
[7] = dose: 3.75 mg/kg/injection, schedule: Q01DX Z (ip), vehicle: carboxymethylcellulose (CMC)
[8] = dose: 10.0 mg/kg/injection, schedule: Q01DX Z (ip), vehicle: carboxymethylcellulose (CMC)
[9] = dose: 50.0 mg/kg/injection, schedule: Q01DX Z (ip), vehicle: saline

CCOC(=O)NP(=O)(N1CC1(C)C)N1CC1(C)C (centres undefined)
T/C [1]: 101 % of control
T/C [2]: 115 % of control
T/C [3]: 121 % of control
T/C (dose: 40.0 mg/kg/injection, schedule: Q01DX Z (ip), vehicle: saline): 151 % of control
T/C (dose: 62.0 mg/kg/injection, schedule: Q01DX Z (ip), vehicle: saline): 164 % of control
T/C (dose: 125.0 mg/kg/injection, schedule: Q01DX Z (ip), vehicle: saline): 236 % of control
T/C [4]: 302 % of control
T/C [5]: 100 % of control

S=P(N1CC1)(N1CC1)N1CC1
T/C (dose: 0.75 mg/kg/injection, schedule: Q01DX010 (ip), vehicle: saline): 97 % of control and 115 % of control
T/C (dose: 1.5 mg/kg/injection, schedule: Q01DX010 (ip), vehicle: saline): 124 % of control and 105 % of control
T/C (dose: 3.0 mg/kg/injection, schedule: Q01DX010 (ip), vehicle: saline): 118 % of control
T/C [6]: 94 % of control and 100 % of control

Cn1cnc([N+](=O)[O-])c1Sc1nc(N)nc2nc[nH]c12
T/C (dose: 0.5 mg/kg/injection, schedule: Q01DX Z (ip), vehicle: carboxymethylcellulose (CMC)): 117 % of control
T/C (dose: 2.0 mg/kg/injection, schedule: Q01DX Z (ip), vehicle: carboxymethylcellulose (CMC)): 191 % of control
T/C [7]: 170 % of control
T/C [8]: 120 % of control

OCC1OC(n2cnc3c(Cl)ncnc32)C(O)C1O (centres undefined)
T/C (dose: 62.5 mg/kg/injection, schedule: Q01DX010 (ip), vehicle: saline): 90 % of control and 99 % of control
T/C (dose: 125.0 mg/kg/injection, schedule: Q01DX010 (ip), vehicle: saline): 96 % of control and 101 % of control
T/C (dose: 250.0 mg/kg/injection, schedule: Q01DX010 (ip), vehicle: saline): 97 % of control and 103 % of control
T/C (dose: 500.0 mg/kg/injection, schedule: Q01DX010 (ip), vehicle: saline): 101 % of control and 106 % of control

C[N+](C)(C)c1ncnc2nc[nH]c12
T/C (dose: 15.0 mg/kg/injection, schedule: Q01DX010 (ip), vehicle: saline): 92 % of control
T/C (dose: 30.0 mg/kg/injection, schedule: Q01DX010 (ip), vehicle: saline): 110 % of control
T/C (dose: 37.0 mg/kg/injection, schedule: Q01DX Z (ip), vehicle: saline): 102 % of control

CS(=O)(=O)OCCCl
T/C (dose: 18.8 mg/kg/injection, schedule: Q01DX010 (ip), vehicle: saline): 99 % of control and 108 % of control
T/C (dose: 37.5 mg/kg/injection, schedule: Q01DX010 (ip), vehicle: saline): 90 % of control and 103 % of control
T/C (dose: 44.0 mg/kg/injection, schedule: Q01DX Z (ip), vehicle: saline): 103 % of control
T/C (dose: 75.0 mg/kg/injection, schedule: Q01DX010 (ip), vehicle: saline): 107 % of control and 108 % of control
T/C (dose: 87.5 mg/kg/injection, schedule: Q01DX Z (ip), vehicle: saline): 115 % of control
T/C (dose: 150.0 mg/kg/injection, schedule: Q01DX010 (ip), vehicle: saline): 89 % of control
T/C (dose: 175.0 mg/kg/injection, schedule: Q01DX Z (ip), vehicle: saline): 119 % of control

N#[N+]c1cnc([O-])[nH]c1=O
T/C (dose: 1.25 mg/kg/injection, schedule: Q01DX010 (ip), vehicle: saline): 110 % of control
T/C (dose: 2.5 mg/kg/injection, schedule: Q01DX Z (ip), vehicle: alkali diluted with saline): 102 % of control
T/C (dose: 5.0 mg/kg/injection, schedule: Q01DX Z (ip), vehicle: alkali diluted with saline): 102 % of control
T/C (dose: 7.5 mg/kg/injection, schedule: Q01DX Z (ip), vehicle: alkali diluted with saline): 106 % of control
T/C [2]: 172 % of control
T/C (dose: 15.0 mg/kg/injection, schedule: Q01DX Z (ip), vehicle: alkali diluted with saline): 108 % of control
T/C [3]: 96 % of control

O=P1(N(CCCl)CCCl)NCCCO1 (centres undefined)
T/C [1]: 102 % of control
T/C [2]: 124 % of control
T/C (dose: 15.0 mg/kg/injection, schedule: Q01DX Z (ip), vehicle: saline): 122 % of control
T/C (dose: 25.0 mg/kg/injection, schedule: Q01DX Z (ip), vehicle: saline): 160 % of control
T/C (dose: 37.5 mg/kg/injection, schedule: Q01DX Z (ip), vehicle: saline): 200 % of control
T/C [9]: 166 % of control and 239 % of control
T/C (dose: 75.0 mg/kg/injection, schedule: Q01DX Z (ip), vehicle: saline): 102 % of control
T/C (dose: 200.0 mg/kg/injection, schedule: Q01DX Z (ip), vehicle: saline): 100 % of control

N=[N+]=CC(=O)OCC(N)C(=O)O (centres undefined)
T/C (dose: 1.0 mg/kg/injection, schedule: Q01DX Z (ip), vehicle: carboxymethylcellulose (CMC)): 122 % of control
T/C [7]: 168 % of control
T/C (dose: 5.0 mg/kg/injection, schedule: Q01DX Z (ip), vehicle: carboxymethylcellulose (CMC)): 171 % of control
T/C (dose: 6.25 mg/kg/injection, schedule: Q01DX010 (ip), vehicle: saline): 156 % of control
T/C (dose: 7.5 mg/kg/injection, schedule: Q01DX Z (ip), vehicle: carboxymethylcellulose (CMC)): 183 % of control
T/C [8]: 174 % of control
T/C (dose: 12.5 mg/kg/injection, schedule: Q01DX010 (ip), vehicle: saline): 118 % of control
T/C (dose: 25.0 mg/kg/injection, schedule: Q01DX010 (ip), vehicle: saline): 97 % of control
T/C (dose: 30.0 mg/kg/injection, schedule: Q01DX Z (ip), vehicle: carboxymethylcellulose (CMC)): 115 % of control

N#Cc1cn(C2OC(CO)C(O)C2O)c2ncnc(N)c12 (centres undefined)
T/C (dose: 31.3 micrograms/kg/injection, schedule: Q01DX010 (ip), vehicle: saline): 95 % of control
T/C (dose: 62.5 micrograms/kg/injection, schedule: Q01DX010 (ip), vehicle: saline): 99 % of control
T/C (dose: 125.0 micrograms/kg/injection, schedule: Q01DX010 (ip), vehicle: saline): 97 % of control

O=c1cnn(C2OC(CO)C(O)C2O)c(=O)[nH]1 (centres undefined)
T/C [9]: 172 % of control
T/C (dose: 100.0 mg/kg/injection, schedule: Q01DX Z (ip), vehicle: saline): 164 % of control
T/C (dose: 187.0 mg/kg/injection, schedule: Q01DX Z (ip), vehicle: saline): 181 % of control
T/C [4]: 224 % of control
T/C (dose: 375.0 mg/kg/injection, schedule: Q01DX Z (ip), vehicle: saline): 218 % of control
T/C [5]: 225 % of control
T/C (dose: 750.0 mg/kg/injection, schedule: Q01DX Z (ip), vehicle: saline): 222 % of control
T/C (dose: 800.0 mg/kg/injection, schedule: Q01DX010 (ip), vehicle: saline): 167 % of control
T/C (dose: 1000.0 mg/kg/injection, schedule: Q01DX Z (ip), vehicle: saline): 182 % of control
T/C (dose: 1600.0 mg/kg/injection, schedule: Q01DX010 (ip), vehicle: saline): 86 % of control

O=C(Nc1ccc(C2=NCCN2)cc1)c1ccc(C(=O)Nc2ccc(C3=NCCN3)cc2)c([N+](=O)[O-])c1
T/C [6]: 102 % of control and 108 % of control
T/C (dose: 8.0 mg/kg/injection, schedule: Q01DX010 (ip), vehicle: saline): 100 % of control and 113 % of control
T/C (dose: 12.0 mg/kg/injection, schedule: Q01DX010 (ip), vehicle: saline): 112 % of control and 119 % of control
T/C (dose: 18.0 mg/kg/injection, schedule: Q01DX010 (ip), vehicle: saline): 89 % of control and 95 % of control

C=C1C[C@H]2[C@@H]3C=C(C)C4=CC(=O)CC[C@]4(C)[C@H]3CC[C@]2(C)[C@@]1(OC(C)=O)C(C)=O
T/C (dose: 62.5 mg/kg/injection, schedule: Q01DX010 (sc), vehicle: steriod suspending solution): 101 % of control
T/C (dose: 125.0 mg/kg/injection, schedule: Q01DX010 (sc), vehicle: steriod suspending solution): 93 % of control
T/C (dose: 250.0 mg/kg/injection, schedule: Q01DX010 (sc), vehicle: steriod suspending solution): 97 % of control
T/C (dose: 500.0 mg/kg/injection, schedule: Q01DX010 (sc), vehicle: steriod suspending solution): 95 % of control

O=C(Nc1ccc(C2=NCCN2)cc1)Nc1cccc(NC(=O)Nc2ccc(C3=NCCN3)cc2)c1
T/C (dose: 60.0 mg/kg/injection, schedule: Q01DX010 (ip), vehicle: saline): 96 % of control and 110 % of control
T/C (dose: 120.0 mg/kg/injection, schedule: Q01DX010 (ip), vehicle: saline): 92 % of control and 116 % of control
T/C (dose: 240.0 mg/kg/injection, schedule: Q01DX010 (ip), vehicle: saline): 96 % of control and 100 % of control
T/C (dose: 480.0 mg/kg/injection, schedule: Q01DX010 (ip), vehicle: saline): 86 % of control and 87 % of control

O=C(Nc1ccc(C2=NCCN2)cc1)c1ccc(C(=O)Nc2ccc(C3=NCCN3)cc2)c(Cl)c1
T/C (dose: 2.0 mg/kg/injection, schedule: Q01DX010 (ip), vehicle: other): 98 % of control and 100 % of control
T/C (dose: 4.0 mg/kg/injection, schedule: Q01DX010 (ip), vehicle: other): 107 % of control and 110 % of control
T/C (dose: 8.0 mg/kg/injection, schedule: Q01DX010 (ip), vehicle: other): 107 % of control and 117 % of control
T/C (dose: 16.0 mg/kg/injection, schedule: Q01DX010 (ip), vehicle: other): 122 % of control and 107 % of control
T/C (dose: 32.0 mg/kg/injection, schedule: Q01DX010 (ip), vehicle: other): 120 % of control and 112 % of control
